Test system: Plasmodium berghei
Experiment: Luciferase/luciferin-expressing antifolate-resistant parasites were used to infect a culture of HepG2 cells that were pre-incubated with compounds. Infected hepatocytes emit light due to the luciferase reaction. Assay results are presented as the percent inhibition of light emission compared to control. […]
Assay type: functional
Details: sporozoite; for IC90: read-out: LUCIFERASE INFECTION ASSAY - IC90

Structure (SMILES) | IC90 [µM] | further results
Cn1cc(-c2cnc3cnc(-c4ccncc4)cn23)cn1 | > 11.9 | IC50 (HEPG2TOX_HILL_SLOPE 1.93, HEPG2TOX_R_SQUARED 0.473, PBLUC_HILL_SLOPE 0.98, PBLUC_R_SQUARED 0.306, read-out: LUCIFERASE INFECTION ASSAY - IC50): 10.1 µM
O=C1Nc2ccccc2/C1=C/c1ccccc1N1CCOCC1 | > 10.8 | IC50 (HEPG2TOX_HILL_SLOPE 1.93, HEPG2TOX_R_SQUARED 0.799, PBLUC_HILL_SLOPE 2.49, PBLUC_R_SQUARED 0.295, read-out: LUCIFERASE INFECTION ASSAY - IC50): 5.94 µM
Cc1cc(C)c(S(=O)(=O)Nc2cc(C)nn2-c2ccccn2)c(C)c1 | 3.28 | IC50 (HEPG2TOX_HILL_SLOPE 1.93, HEPG2TOX_R_SQUARED 0.937, PBLUC_HILL_SLOPE 16.1, PBLUC_R_SQUARED 0.725, read-out: LUCIFERASE INFECTION ASSAY - IC50): 2.86 µM
COc1ccc(C(OC(=O)c2ccccc2)c2nccc3ccccc23)cc1 (configuration not stated) | > 8.93 | IC50 (HEPG2TOX_HILL_SLOPE 1.92, HEPG2TOX_R_SQUARED 0.889, PBLUC_HILL_SLOPE 0.417, PBLUC_R_SQUARED 0.183, read-out: LUCIFERASE INFECTION ASSAY - IC50): 5.78 µM
COc1ccc(-c2cc3ncnc(NCc4ccc(N5CCN(C)CC5)nc4)c3s2)cc1 | 4.79 | IC50 (HEPG2TOX_HILL_SLOPE 1.93, HEPG2TOX_R_SQUARED 0.825, PBLUC_HILL_SLOPE 2.26, PBLUC_R_SQUARED 0.8, read-out: LUCIFERASE INFECTION ASSAY - IC50): 1.81 µM
N/C(=N\NC(=O)c1cccc(C(F)(F)F)c1)c1ccc(C(F)(F)F)cn1 | 1.42 | IC50 (HEPG2TOX_HILL_SLOPE 1.95, HEPG2TOX_R_SQUARED 0.695, PBLUC_HILL_SLOPE 3.85, PBLUC_R_SQUARED 0.803, read-out: LUCIFERASE INFECTION ASSAY - IC50): 0.802 µM
COc1ccc(-c2cnc3cnc(-c4cccc(OC)c4F)cn23)cc1 | 4.49 | IC50 (HEPG2TOX_HILL_SLOPE 1.94, HEPG2TOX_R_SQUARED 0.943, PBLUC_HILL_SLOPE 2.65, PBLUC_R_SQUARED 0.707, read-out: LUCIFERASE INFECTION ASSAY - IC50): 1.96 µM
N#Cc1c(Cl)cccc1N1CCCC1c1ccc2c(c1)OCCCO2 (configuration not stated) | > 10 | IC50 (HEPG2TOX_HILL_SLOPE 1.92, HEPG2TOX_R_SQUARED 0.934, read-out: LUCIFERASE INFECTION ASSAY - IC50): > 10 µM
CCC(C)NC(=O)c1c(NC(=O)c2ccc(OC)cc2)nc2ccc(C)cn12 (configuration not stated) | > 8.67 | IC50 (HEPG2TOX_HILL_SLOPE 1.94, HEPG2TOX_R_SQUARED 0.651, PBLUC_HILL_SLOPE 14.9, PBLUC_R_SQUARED 0.0352, read-out: LUCIFERASE INFECTION ASSAY - IC50): 7.7 µM
Cc1ccc(-n2nnnc2SCc2ccccc2Cl)c(C)c1 | > 9.97 | IC50 (HEPG2TOX_HILL_SLOPE 1.94, HEPG2TOX_R_SQUARED 0.896, PBLUC_HILL_SLOPE 2.04, PBLUC_R_SQUARED 0.254, read-out: LUCIFERASE INFECTION ASSAY - IC50): 6.75 µM
COc1cc(C(=O)N2CC=C(c3c[nH]c4ccccc34)CC2)cc(Cl)c1OC | > 10 | IC50 (HEPG2TOX_HILL_SLOPE 1.93, HEPG2TOX_R_SQUARED 0.934, PBLUC_HILL_SLOPE 11.8, PBLUC_R_SQUARED 0.218, read-out: LUCIFERASE INFECTION ASSAY - IC50): 8.9 µM
CCOc1ccc(-c2nnc(SCc3csc(Nc4ccc(C)cc4)n3)n2-c2ccccc2F)cc1 | > 10 | IC50 (HEPG2TOX_HILL_SLOPE 1.93, HEPG2TOX_R_SQUARED 0.706, PBLUC_HILL_SLOPE 2.19, PBLUC_R_SQUARED 0.586, read-out: LUCIFERASE INFECTION ASSAY - IC50): 5.29 µM
O=C(Nc1ccc(CN2CCCC2)cc1)c1ccc(-n2cnc3ccccc32)cc1 | > 10 | IC50 (HEPG2TOX_HILL_SLOPE 1.93, HEPG2TOX_R_SQUARED 0.859, PBLUC_HILL_SLOPE 3.59, PBLUC_R_SQUARED 0.621, read-out: LUCIFERASE INFECTION ASSAY - IC50): 5.74 µM
CC(C)c1ccc(Nc2nccc3nc(-c4cccc(F)c4)[nH]c23)cc1 | > 10 | IC50 (HEPG2TOX_HILL_SLOPE 1.91, HEPG2TOX_R_SQUARED 0.651, PBLUC_HILL_SLOPE 0.872, PBLUC_R_SQUARED 0.722, read-out: LUCIFERASE INFECTION ASSAY - IC50): 1.39 µM
C/C(=N\O)c1cnc(-c2ccccc2)s1 | 14.8 | IC50 (HEPG2TOX_HILL_SLOPE 1.93, HEPG2TOX_R_SQUARED 0.937, PBLUC_HILL_SLOPE 2.91, PBLUC_R_SQUARED 0.0759, read-out: LUCIFERASE INFECTION ASSAY - IC50): 6.95 µM
COc1cc(-c2[nH]nc3nccc(/C=C/c4ccccc4)c23)cc(OC)c1OC | 0.962 | IC50 (HEPG2TOX_HILL_SLOPE 1.93, HEPG2TOX_R_SQUARED 0.947, PBLUC_HILL_SLOPE 2.35, PBLUC_R_SQUARED 0.701, read-out: LUCIFERASE INFECTION ASSAY - IC50): 0.378 µM

Structure (SMILES) | IC90 [µM] | further results
Cc1ccccc1-c1ccc(CN2CCC3(CC2)C(=O)N(C)C(=O)N3CC(C)C)cc1 | 3.99 | IC50 (HEPG2TOX_HILL_SLOPE 1.94, HEPG2TOX_R_SQUARED 0.943, PBLUC_HILL_SLOPE 7.56, PBLUC_R_SQUARED 0.512, read-out: LUCIFERASE INFECTION ASSAY - IC50): 2.99 µM
O=C(Nc1cccc(Cl)c1)C1=COC2=NC(=O)N(Cc3ccccc3)CCN12 | > 10 | IC50 (HEPG2TOX_HILL_SLOPE 1.91, HEPG2TOX_R_SQUARED 0.961, read-out: LUCIFERASE INFECTION ASSAY - IC50): > 10 µM
COc1ccc(OC)c(CCNc2nc3cnc(-c4ccc(Cl)cc4)cc3n2C)c1 | 3.74 | IC50 (HEPG2TOX_HILL_SLOPE 1.93, HEPG2TOX_R_SQUARED 0.878, PBLUC_HILL_SLOPE 2.27, PBLUC_R_SQUARED 0.668, read-out: LUCIFERASE INFECTION ASSAY - IC50): 1.42 µM
CC(C)n1ncc2cc(C(=O)Nc3cccc4c3CCCC4)cnc21 | 8.92 | IC50 (HEPG2TOX_HILL_SLOPE 1.91, HEPG2TOX_R_SQUARED 0.864, PBLUC_HILL_SLOPE 1.61, PBLUC_R_SQUARED 0.644, read-out: LUCIFERASE INFECTION ASSAY - IC50): 2.28 µM
Fc1ccc(CSc2nnnn2-c2ccc3c(c2)OCO3)c(Cl)c1 | 8.12 | IC50 (HEPG2TOX_HILL_SLOPE 1.94, HEPG2TOX_R_SQUARED 0.929, PBLUC_HILL_SLOPE 1.23, PBLUC_R_SQUARED 0.52, read-out: LUCIFERASE INFECTION ASSAY - IC50): 1.37 µM
Cc1ccc(F)cc1C(=O)Nc1nc2ccccn2c1C(=O)NC1CCCCC1 | 1.12 | IC50 (HEPG2TOX_HILL_SLOPE 1.92, HEPG2TOX_R_SQUARED 0.809, PBLUC_HILL_SLOPE 11.3, PBLUC_R_SQUARED 0.608, read-out: LUCIFERASE INFECTION ASSAY - IC50): 0.921 µM
CC(C)Nc1nc(-c2ccccc2CO)c2sc(-c3ccccc3)cc2n1 | 0.949 | IC50 (HEPG2TOX_HILL_SLOPE 1.93, HEPG2TOX_R_SQUARED 0.921, PBLUC_HILL_SLOPE 16.9, PBLUC_R_SQUARED 0.634, read-out: LUCIFERASE INFECTION ASSAY - IC50): 0.833 µM
O=C(CSc1nnc(-c2c[nH]c3ccccc23)n1C1CC1)Nc1ccccc1N1CCCC1 | > 10 | IC50 (HEPG2TOX_HILL_SLOPE 1.91, HEPG2TOX_R_SQUARED 0.598, PBLUC_HILL_SLOPE 0.845, PBLUC_R_SQUARED 0.661, read-out: LUCIFERASE INFECTION ASSAY - IC50): 3.63 µM
N#Cc1sc(SCc2ccccc2)c2c1CC(c1ccccc1)CC2=O (configuration not stated) | > 8.79 | IC50 (HEPG2TOX_HILL_SLOPE 1.94, HEPG2TOX_R_SQUARED 0.866, PBLUC_HILL_SLOPE 1.6, PBLUC_R_SQUARED 0.401, read-out: LUCIFERASE INFECTION ASSAY - IC50): 7.45 µM
Cc1cc(C)c2c(=O)cc(C(=O)Nc3cccnc3)oc2c1 | 4.06 | IC50 (HEPG2TOX_HILL_SLOPE 1.93, HEPG2TOX_R_SQUARED 0.965, PBLUC_HILL_SLOPE 5.85, PBLUC_R_SQUARED 0.609, read-out: LUCIFERASE INFECTION ASSAY - IC50): 2.79 µM
O=C(NCCCc1nc2ccccc2[nH]1)c1[nH]nc2ccccc12 | 1.48 | IC50 (HEPG2TOX_HILL_SLOPE 1.95, 1.49, HEPG2TOX_R_SQUARED 0.808, 0.974, PBLUC_HILL_SLOPE 11.3, 2.85, PBLUC_R_SQUARED 0.579, 0.589, read-out: LUCIFERASE INFECTION ASSAY - IC50): 0.947 µM
Cc1cccc2c(=O)n(CC(=O)NCc3ccc(C(=O)N4CCCCC4)cc3)cnc12 | 3.14 | IC50 (HEPG2TOX_HILL_SLOPE 1.92, HEPG2TOX_R_SQUARED 0.972, PBLUC_HILL_SLOPE 11.2, PBLUC_R_SQUARED 0.559, read-out: LUCIFERASE INFECTION ASSAY - IC50): 2.58 µM
Brc1cc2c(cc1CSc1ncnc3ccccc13)OCO2 | 1.53 | IC50 (HEPG2TOX_HILL_SLOPE 1.93, HEPG2TOX_R_SQUARED 0.941, PBLUC_HILL_SLOPE 155, PBLUC_R_SQUARED 0.104, read-out: LUCIFERASE INFECTION ASSAY - IC50): 1.51 µM
CCn1c2ccccc2c2cc(Nc3c(C#N)c(=O)n(C)c(=O)n3C)ccc21 | 0.508 | IC50 (HEPG2TOX_HILL_SLOPE 1.91, HEPG2TOX_R_SQUARED 0.9, PBLUC_HILL_SLOPE 11.3, PBLUC_R_SQUARED 0.663, read-out: LUCIFERASE INFECTION ASSAY - IC50): 0.418 µM
O=C1/C(=C/c2cc(Cl)ccc2O)NC(=S)N1Cc1ccccc1Cl | 1.37 | IC50 (HEPG2TOX_HILL_SLOPE 1.93, HEPG2TOX_R_SQUARED 0.989, PBLUC_HILL_SLOPE 8.09, PBLUC_R_SQUARED 0.926, read-out: LUCIFERASE INFECTION ASSAY - IC50): 1.05 µM

— ChEMBL document CHEMBL4483862, “Open-source discovery of chemical leads for next-generation chemoprotective antimalarials” (2018)
